Experimental data published in ChEMBL document CHEMBL1287732, “Development of novel bisubstrate-type inhibitors of histone methyltransferase SET7/9” (Bioorg Med Chem, 2010).
The source made the active and inactive calls. The calls are words filed in the database; no cut-off is given here.

Target: T1, Histone-lysine N-methyltransferase SETD7 (Homo sapiens) (UniProt Q8WTS6)
T1 sequence (whole entry): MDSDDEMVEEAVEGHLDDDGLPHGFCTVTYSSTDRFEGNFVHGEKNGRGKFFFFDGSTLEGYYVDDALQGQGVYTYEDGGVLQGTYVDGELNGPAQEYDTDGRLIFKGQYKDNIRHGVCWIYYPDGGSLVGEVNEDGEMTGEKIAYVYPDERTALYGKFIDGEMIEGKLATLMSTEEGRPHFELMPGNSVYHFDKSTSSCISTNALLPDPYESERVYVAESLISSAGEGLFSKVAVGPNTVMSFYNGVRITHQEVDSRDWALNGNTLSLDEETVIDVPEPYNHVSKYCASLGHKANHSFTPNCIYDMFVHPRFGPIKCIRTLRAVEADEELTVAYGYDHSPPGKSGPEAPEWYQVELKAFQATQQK
Assay: Inhibition of human recombinant SET7/9 in cell free system assessed as monomethylation of histone H3 Lys4 residue after 1 hr in presence of 2 uM AdoMet

Structure (SMILES) | inhibition
CCCCCCNCCN(CC[C@H](N)C(=O)O)C[C@H]1O[C@@H](n2cnc3c(N)ncnc32)[C@H](O)[C@@H]1O | Active
Nc1ncnc2c1ncn2[C@@H]1O[C@H](CN(CCNCCc2ccccc2)CC[C@H](N)C(=O)O)[C@@H](O)[C@H]1O | Active
CCCNCCN(CC[C@H](N)C(=O)O)C[C@H]1O[C@@H](n2cnc3c(N)ncnc32)[C@H](O)[C@@H]1O | Active
CCCCCCN(CC[C@H](N)C(=O)O)C[C@H]1O[C@@H](n2cnc3c(N)ncnc32)[C@H](O)[C@@H]1O | inactive
CNCCN(CC[C@H](N)C(=O)O)C[C@H]1O[C@@H](n2cnc3c(N)ncnc32)[C@H](O)[C@@H]1O | Active
